Results on one compound are retold here after patent publication US20130131139A1, “ROR1 AS A GENE TARGET IN ACUTE LYMPHOBLASTIC LEUKEMIA” (Oregon Health & Science University, priority 2011, published 2013).

Some results are limits rather than exact numbers.

In the assay the test system is leukemia cells from eight other ALL patients. As to the kind of experiment: Dasatinib cell viability (MTS assay), primary cells of other ALL subsets. Format: cell-based. The conditions noted are these: Homo sapiens, 72 h; eight other ALL samples; highest tested concentration 1000 nM; 3 days.

The term IC50 denotes the concentration needed to halve the response being measured. Read a high IC50 as weaker potency in that assay. On to `Cc1nc(Nc2ncc(C(=O)Nc3c(C)cccc3Cl)s2)cc(N2CCN(CCO)CC2)n1` [dasatinib], for which the IC50 was more than 1 µM.
